Experimental data published in US9675649B2, “Disialyllacto-N-tetraose (DSLNT) or variants, isomers, analogs and derivatives thereof to prevent or inhibit bowel disease” (The Regents of the University of California, priority 2011, dated 2017).

Tested on: NEC model in neonatal rats
Assay: Induction and evaluation of NEC in neonatal rats (formula feeding by oral gavage plus hypoxia)
Format: in vivo, Sprague-Dawley rats
Conditions: HMO fractions/subfractions added to formula at their respective concentrations in pooled HMO at 10 mg/ml, 96 h post-partum
Text: Instead, we tested HMO in a well-established NEC model with neonatal Sprague-Dawley rats. We induced time-pregnant rats by oxytocin and randomized their pups into the different intervention groups. Some pups were left with the dam to serve as breast-fed controls; others were formula-fed by oral gavage twice daily. All pups were exposed to hypoxia thrice daily. On day-of-life 4, we sacrificed the pups and analyzed their intestines for macroscopic and microscopic signs of NEC. The ileum was prepared for H&E staining and evaluated blindly by three independent investigators to determine NEC pathology scores. […] We then isolated HMO from pooled human milk and added them to the formula.
Each HMO fraction and subfraction was tested at concentrations that were based on their relative abundance in pooled HMO at 10 mg/mL, the average concentration in mature human milk. Assuming an average molecular weight of 1,000 g/mol for pooled HMO, 10 mg/mL is equivalent to 10 mM.
Briefly, pregnant time-dated Sprague-Dawley rats were induced at term using Pitocin (1-2 U per animal). Immediately after birth, neonates were randomized into one of the different study groups. Animals in the dam-fed (DF) group remained with the dam. All other animals were separated from the dam, housed in a temperature- and humidity-controlled incubator and orally gavaged with a special rodent formula (0.2 ml) twice daily. […] A 0.5 cm section of the terminal ileum was prepared for H&E staining per standard protocols and scored blindly by three investigators based on morphological changes that included epithelial sloughing, villus oedema, infiltration of neutrophils, apoptosis of villus enterocytes, crypt hyperplasia and misaligned nuclei in the epithelium. […] Pathology scores were plotted for each animal and the mean calculated per group. […] Differences between the groups were calculated by one-way ANOVA with the Kruskal-Wallis test and Dunn's multiple comparison test. […]

CC(=O)N[C@H]1[C@H](O[C@H]2[C@@H](O)[C@@H](CO)O[C@@H](O[C@@H]([C@H](O)[C@@H](O)C=O)[C@H](O)CO)[C@@H]2O)O[C@H](CO[C@]2(C(=O)O)C[C@H](O)[C@@H](NC(C)=O)[C@H]([C@H](O)[C@H](O)CO)O2)[C@@H](O)[C@@H]1O[C@@H]1O[C@H](CO)[C@H](O)[C@H](O[C@]2(C(=O)O)C[C@H](O)[C@@H](NC(C)=O)[C@H]([C@H](O)[C@H](O)CO)O2)[C@H]1O [DSLNT, Disialyllacto-N-tetraose]
ileum pathology score (listed as #2): significantly reduced NEC | ileum pathology score (listed as HMO 2): 0.64±0.41 | ileum pathology score (listed as HMO #2): significantly reduced NEC pathology scores
